# From patent publication US9247742B2 (priority 2012, dated 2016)
# Where two headings read alike, the source gives them in different places.
# What was measured:
# Magnaporthe oryzae [1] = format: in vivo; conditions: 1-day curative/protective; for B % DC: component B alone; for A % DC: component A (777) alone
# Magnaporthe oryzae [2] = format: in vivo; conditions: 1-day protective; for B % DC: component B alone; for A % DC: component A (777) alone
structure (smiles),measurement,setting,value
"C=CCOC1=NS(=O)(=O)c2ccccc21 [Probenazole, 3-(2-propenyloxy)-1,2-benzisothiazole 1,1-dioxide]",B % DC,Magnaporthe oryzae [1]; Rate B 3.12 ai/ppm,69%
same,B % DC,Magnaporthe oryzae [1]; Rate B 12.5 ai/ppm,78%
"CCC1(C(=O)NC(C)c2ccc(Cl)cc2)C(C)C1(Cl)Cl (stereo not drawn) [Carpropamid, 2,2-dichloro-N-[1-(4-chlorophenyl)ethyl]-1-ethyl-3-methylcyclopropanecarboxamide]",B % DC,Magnaporthe oryzae [2]; Rate B 0.1 ai ppm,2%
same,B % DC,Magnaporthe oryzae [2]; Rate B 0.4 ai ppm,23%
"C[C@H]1O[C@H](O[C@H]2[C@H](O)[C@@H](O)[C@@H](O)[C@H](O)[C@@H]2O)[C@@H](N)C[C@@H]1NC(=N)C(=O)O [Kasugamycin, 3-O-[2-amino-4-[(carboxylminomethyl)amino]-2,3,4,6-tetradeoxy-α-D-arabino-hexopyranosyl]-D-chiro-inositol]",B % DC,Magnaporthe oryzae [1]; Rate B 1.56 ai/ppm,69%
same,B % DC,Magnaporthe oryzae [1]; Rate B 6.25 ai/ppm,68%
same,B % DC,Magnaporthe oryzae [1]; Rate B 25 ai/ppm,74%
"CO/C=C(/C(=O)OC)c1ccccc1Oc1cc(Oc2ccccc2C#N)ncn1 [Azoxystrobin, methyl (αE)-2-[[6-(2-cyanophenoxy)-4-pyrimidinyl]oxy]-α-(methoxymethylene)benzeneacetate]",B % DC,Magnaporthe oryzae [2]; Rate B 0.025 ai ppm,9%
same,B % DC,Magnaporthe oryzae [2]; Rate B 0.1 ai ppm,19%
same,B % DC,Magnaporthe oryzae [2]; Rate B 0.4 ai ppm,30%
same,B % DC,Magnaporthe oryzae [2]; Rate B 1.56 ai ppm,0%
"Cc1cccc2sc3nncn3c12 [Tricyclazole, 5-methyl-1,2,4-triazolo[3,4-b]benzothiazole]",B % DC,Magnaporthe oryzae [1]; Rate B 0.1 ai/ppm,71%
same,B % DC,Magnaporthe oryzae [2]; Rate B 0.025 ai ppm,0%
same,B % DC,Magnaporthe oryzae [2]; Rate B 0.1 ai ppm,0%
same,B % DC,Magnaporthe oryzae [2]; Rate B 0.4 ai ppm,23%
COc1ccnc(C(=O)N[C@H]2COC(=O)[C@H](Cc3ccccc3)[C@@H](OC(=O)C(C)C)[C@H](C)OC2=O)c1OCOC(=O)C(C)C [compound 777],A % DC,Magnaporthe oryzae [1]; Rate A 0.1 ai/ppm,28%
same,A % DC,Magnaporthe oryzae [1]; Rate A 0.4 ai/ppm,50%
same,A % DC,Magnaporthe oryzae [1]; Rate A 1.56 ai/ppm,67%
same,A % DC,Magnaporthe oryzae [1]; Rate A 6.25 ai/ppm,81%
same,A % DC,Magnaporthe oryzae [2]; Rate A 0.025 ai ppm,0%
same,A % DC,Magnaporthe oryzae [2]; Rate A 0.1 ai ppm,21%
same,A % DC,Magnaporthe oryzae [2]; Rate A 0.25 ai ppm,0%
same,A % DC,Magnaporthe oryzae [2]; Rate A 0.4 ai ppm,61%
"O=C(Nc1ccccc1-c1ccc(Cl)cc1)c1cccnc1Cl [Boscalid, 2-chloro-N-(4′-chloro[1,1′-biphenyl]-2-yl)-3-pyridinecarboxamide]",B % DC,Magnaporthe oryzae [1]; Rate B 400 ai/ppm,69%
